# Marks after values point to notes of the source that are not given here.
# Tests used:
# PPARγ = test: Adipocyte-related gene expression level: PPARγ; format: cell-based
# Experimental: (§1) In the same manner as in Example 10, the cells were cultured, and total RNA was extracted using Rneasy96 kit (Qiagen) from the cell immediately before and 6 days after addition of […] of the compound of Reference Example 1. cDNA was prepared from the total RNA using TaqMan reverse transcription reagent (Applied Biosystems), quantitative PCR was performed by ABI PRISM7000 or 7000 using TaqMan Universal PCR master mix (Applied Biosystems) and commercially available primers, and the expression level of each gene was determined. The commercially available primers used were as follows. • C/EBPα (Mm00514283_s1, TaqMan Gene Expression Assays, Applied Biosystems) • C/EBPβ (Mm00843434_s1, TaqMan Gene Expression Assays, Applied Biosystems) • KLF15 (Mm00517792_m1, TaqMan Gene Expression Assays, Applied Biosystems) • PPARγ (Mm00440945_m1, TaqMan Gene Expression Assays, Applied Biosystems)
# (§2) The expression level was amended by the amount of 36B4 (Takeda Pharmaceutical Company Limited) in the same manner as in Example 3, and the relative values to the value immediately before addition of each gene compound as 1 are shown in Table 16. The data in Table 16 show mean±standard deviation at n=3-4 (n is the number of samples).
# EGLN3 = test: Muscle-related gene expression in myoblast: EGLN3; format: cell-based, Mouse; conditions: for EGLN3/36B4 expression level: 10 μM, 1 day, relative value
# Experimental: • (1) In the same manner as in Example 1, C2C12 cell was cultured, and the compound of Reference Example 1 (10 nM) was added. A DMSO solution was added to the control group instead of the test compound. • (2) One day after the addition of the test compound or DMSO solution, total RNA was extracted using Rneasy 96 kit (Qiagen) and according to the manual of the kit, and cDNA was prepared using TaqMan reverse transcription reagent (Applied Biosystems). • (3) The expression level of MyoD (Mm00440387_m1, TaqMan Gene Expression Assays, Applied Biosystems), myogenin (Mm00446194_m1, TaqMan Gene Expression Assays, Applied Biosystems), creatine kinase (CKM) (Mm00432556_m1, TaqMan Gene Expression Assays, Applied Biosystems), EGLN3 (Mm00472200_m1, TaqMan Gene Expression Assays, Applied Biosystems) was measured by quantify PCR using ABI PRISM 7900 (Applied Biosystems). The expression level of each gene, shown in Table 3, Table 4, Table 5 and Table 6, was obtained by amendment against the expression level of 36B4 (Takeda Pharmaceutical Company Limited), and is shown in a relative value to the value of the control group cultured in a growth medium as 1.
# The data of Table 3, Table 4, Table 5 and Table 6 show mean±standard deviation at n=6 (n is the number of samples).
# The following depicts the sequences of genes used for the amendment. • 36B4-F: 5′-TGCCACACTCCATCATCAATG-3′ (SEQ ID NO: 1) • 36B4-R: 5′-CGCAAATGCAGATGGATCAG-3′ (SEQ ID NO: 2) • 5′-VIC-ACCTTCCCACTTACTGAAAAGGTCAAGGCC-TAMRA-3′ (SEQ ID NO: 3)
# [1] = system: Normal male C57BL/6J mice; test: Data of normal mouse; format: in vivo
# Experimental: Normal male C57BL/6J mice (CLEA Japan, Inc.) were bred allowing free ingestion of both feed and water. The mice were bred for acclimation for 1 week from 16-week-old. The body weight was measured, the mice were divided into 2 groups (5 per group) to be uniform, and the compound of Reference Example 1 (0.03 mg/kg) was orally administered to one group for 2 weeks. On the last day, the body weight, and plasma levels of total cholesterol, glucose, lactic acid, GOT, GPT and neutral lipid were measured. The data of Table 19 show mean±standard deviation at n=5 (n is the number of samples).
# Female KKA^y mice = test: Improvement of insulin resistance in KKA^y mouse (plasma glucose AUC after insulin); format: in vivo; conditions: 4 weeks, insulin 0.5 U/kg i.p.
# Experimental: Female KKA^y mice (12-week-old, CLEA Japan, Inc.) were bred while allowing free ingestion of both feed and water. The mice were bred for acclimation with powder CE-2 (CLEA Japan, Inc.) from 2 weeks before administration of the compound. The body weight and plasma markers were measured and, at 14 weeks of age, they were divided into 4 groups (6 per group) such that the measured values were uniform. The compound of Reference Example 1 was administered for 4 weeks in a mixed feed (0.01-0.09 mg/kg/day). After fasting overnight, insulin was intraperitoneally administered at 0.5 U/kg and, after 30, 60 and 120 min, blood samples were collected.
# MyoD = test: Muscle-related gene expression in myoblast: MyoD; format: cell-based, Mouse; conditions: for MyoD/36B4 expression level: 10 μM, 1 day, relative value
# KLF15 = test: Adipocyte-related gene expression level: KLF15; format: cell-based
# Experimental: as §1, §2
# [2] = 10 μm [sic] of compound, 6 days after addition, value immediately before addition = 1
# [3] = C2C12 cells cultured in a differentiation medium
# [4] = normal mice, 0.03 mg/kg oral, 2 weeks
smiles,measurement,setting,value
"Cc1ncccc1Oc1sc(C(N)=O)c2c1-c1c(cnn1C)CC2 [Ref. Ex. 1, 1-methyl-8-[(2-methylpyridin-3-yl)oxy]-4,5-dihydro-1H-thieno[3,4-g]indazole-6-carboxamide]",PPARγ expression level (amended by 36B4),PPARγ; [2],4.5 ± 0.9
same,expression level of PPARγ (in words),PPARγ; C3H10T1/2 cell,decreased
same,expression of EGLN3 (in words),EGLN3; [3],increased
same,EGLN3/36B4 expression level,EGLN3; DM (differentiation medium),2.07 ± 1.15
same,EGLN3/36B4 expression level,EGLN3; GM (growth medium),2.12 ± 0.15
same,normal body weight and plasma markers (in words),[1]; normal C57BL/6J mice,does not affect
same,body weight (g) on last day,[1]; [4],28.03 ± 0.84 g
same,plasma GOT (U/L),[1]; [4],63.4 ± 31.1 U/L
same,plasma GPT (U/L),[1]; [4],29.4 ± 3.9 U/L
same,plasma glucose,[1]; [4],155.5 ± 11.9 mg/dL
same,plasma lactic acid,[1]; [4],49.3 ± 16.5 mg/dL
same,plasma neutral fats,[1]; [4],78.0 ± 31.0 mg/dL
same,plasma total cholesterol,[1]; [4],81.1 ± 10.2 mg/dL
same,total amount of ingestion (g/2 weeks),[1]; [4],55.6 ± 2.5 g/2 weeks
same,glucose AUC0-120 min,Female KKA^y mice; 0.01 mg/kg/day in mixed feed,241.0 mg·h/dL
same,glucose AUC0-120 min (mg h/dL),Female KKA^y mice; 0.03 mg/kg/day in mixed feed,184.7* mg h/dL
same,glucose AUC0-120 min (mg h/dL),Female KKA^y mice; 0.09 mg/kg/day in mixed feed,182.5* mg h/dL
same,expression of MyoD (in words),MyoD; [3],increased
same,MyoD/36B4 expression level,MyoD; DM (differentiation medium),1.59 ± 0.20
same,MyoD/36B4 expression level,MyoD; GM (growth medium),1.26 ± 0.10
same,KLF15 expression level (amended by 36B4),KLF15; [2],1.4 ± 0.4
same,expression level of KLF15 (in words),KLF15; C3H10T1/2 cell,decreased

# From patent US20130184272A1, “DIABETES THERAPEUTIC AGENT” (TAKEDA PHARMACEUTICAL COMPANY LIMITED, priority 2010, published 2013)
